Consider 4 compounds from patent publication US20250082614A1, “METHODS OF USING RAD51 INHIBITORS FOR TREATMENT OF PANCREATIC CANCER” (Cyteir Therapeutics, Inc., priority 2019, published 2025).

In data set [1] the test system is Daudi cell line (AID positive). The data set can be described thus: Cell killing assay in the Daudi cell line (AID positive), Cell-Titer Glo. The data set is classed as cell-based. Conditions: Homo sapiens, 168 h; Daudi cells (AID positive), cell death on Day 7. The procedure: Primary screening was a phenotypic screen that utilized the synthetic lethal interaction between AID and RAD51 to identify compounds that were both potent and on target. AID expressing cells are dependent upon RAD51 for survival; inhibiting RAD51 in AID positive cells results in a cytotoxic effect.
The first step was to set up a cell killing assay in the Daudi cell line (AID positive). A 96 well u-bottom plate was prepared by writing the experiment number, plate number, date and initials in the top right corner of the plate lid. With a sterile 300 ml reservoir, and 25 ml serological pipette, evaporation buffer media was pipetted into reservoir in 25 ml increments. Using the liquid handler, 150 ul of evaporation buffer media was pipetted from reservoir into rows A and H, and Columns 1 and 12 of the 96 well u-bottom plate. Cell cultures were counted to obtain the density of cells per ml, and the culture viability. The cell density information was used to obtain 1,000,000 cells from culture using a 5 mL serological pipette into an epi tube. The cell density information from the culture was used to calculate the number of cells and volume of media needed for the assay to seed 1250 cells in 130 ul of media per available culture well in the 96 well u-bottom plate. Rows B through F were used for cells (50 wells in total), with row G left for an empty media control. The calculation was overestimated by 10 mL to account for the dead volume in the 300 ml reservoir. Once the media volume was calculated, the appropriate volume of media was pipetted in 25 mL increments into the 250 mL bottle using a 25 mL serological pipette. The 250 ml bottle was capped tightly, and placed into a 37° C. water bath for 2 minutes. While the culture media was warming, 10 mL of fresh media was pipetted from the 500 mL culture media bottle into a sterile 25 mL reservoir. Using the Eppendorf multichannel pipette, 130 ul of media was pipetted from the 25 mL reservoir into row G of the 96 well u-bottom plate. […]

A short description of data set [2]: Bi-directional Caco-2 permeability. The data set is classed as in vitro ADME. Conditions: human; for Papp A→B at 90 min / Papp B→A at 90 min: Caco-2, 37° C., up to 90 minutes; for Papp A→B at 90 min: apical to basolateral, read-out: AB Papp (cm/sec × 10^6); for Papp B→A at 90 min: basolateral to apical, read-out: BA Papp (cm/sec × 10^6); for efflux ratio at 90 min: Caco-2 efflux ratio, read-out: BA/AB Ratio. As to the method:
Bi-directional Caco-2 permeability was assayed. Caco-2 cells were seeded onto permeable polycarbonate supports and allowed to differentiate for about 3 weeks prior to being used in the assays. The cells were then exposed to the compounds from either the apical or basolateral sides and incubated at 37° C. for up to 90 minutes under light agitation. Compound transport was then measured using LC/MS/MS analysis at 30, 60, and 90 minutes.

Data set [3] in a line: Human liver microsome stability. In kind it is in vitro ADME. Conditions: human liver microsomes. The procedure:
The stability of the claimed compounds was determined in the presences of human liver microsomes. The compounds were incubated with the microsomes at 37° C. for 45 minutes. Samples were analyzed using LC-MS/MS. Data analysis included half-life, clearance rate, and the percentage of hepatic blood flow […] for each of the compounds in the different species.
A general note: Liver microsomes are vesicles of endoplasmic reticulum, rich in cytochrome P450 enzymes.

Data set [4] relates to ARPE19/HPV16 (HPV Immortalized RPE). The data set is described as follows: Cell line screen, potency assay. The data set is classed as cell-based. Conditions: ARPE-19, AICDA expression Negative. The procedure:
Percent cell death and EC50 values were calculated by comparing the cell viability of the compound treated wells to the non-treated wells. Normalized RLU values were obtained by subtracting the media well values from each of the wells in the same column, and then dividing that value by the DMSO treated cells values. The percent kill was then calculated by subtracting the normalized RLU value from 1 and multiplying by 100. The average normalized percent kill value and standard error of the mean was then calculated. The kill values were then inputted into Prism with the corresponding standard errors. In Prism a non-linear regression line was plotted with the data points using a semi-log scale, and the EC50 value was calculated.
The activity of the claimed compounds was measured in a variety of cell lines with different expression levels of activation induced cytidine deaminase (AICDA). The potency assay was repeated in all of the listed cell lines and the EC50 values recorded.

Data set [5] can be described thus: Pharmacokinetic (PK) study, plasma by LC-MS. The data set is classed as in vivo, rat. The settings on record: po @ 80 mg/kg. The procedure:
PK studies in mice were used to determine the fate of the compounds in a whole organism. Rats were treated with the compounds either orally of via IV at the indicated doses and followed for up to 24 hours. Plasma samples were taken at different time points and analyzed by LC-MS.

For orientation: EC50 means the concentration that produces a half-maximal response. Regarding `CC(C)OC(=O)Nc1ccc(-c2cnc(C3CCC(NC(=O)OC[C@@H]4CCCN4C)CC3)s2)c(S(=O)(=O)NC(C)(C)C)c1` (stereo partly drawn) [Ex. 9, isopropyl (3-(N-(tert-butyl)sulfamoyl)-4-(2-((1S,4r)-4-(((((S)-1-methylpyrrolidin-2-yl)methoxy)carbonyl)amino)cyclohexyl)thiazol-5-yl)phenyl)carbamate], in data set [1], the EC50 lay within 100 to 1000 nM.
For `CC(C)OC(=O)NC1CCC(c2ncc(-c3ccc(NC(=O)OC[C@H]4CCCN4C)cc3S(=O)(=O)NC(C)(C)C)s2)CC1` (stereo partly drawn) [Ex. 34, isopropyl ((1R,4r)-4-(5-(2-(N-(tert-butyl)sulfamoyl)-4-(((((R)-1-methylpyrrolidin-2-yl)methoxy)carbonyl)amino)phenyl)thiazol-2-yl)cyclohexyl)carbamate], the EC50 in data set [1] fell in the range of 100 to 1000 nM. In data set [2], the Papp A→B at 90 min worked out at 0.4 ×10⁻⁶ cm/s, the Papp B→A at 90 min amounted to 45.2 ×10⁻⁶ cm/s and the efflux ratio at 90 min amounted to 104.
`CC(C)OC(=O)Nc1ccc(-c2cnc([C@H]3CC[C@H](NC(=O)OC(C)C)CC3)s2)c(S(=O)(=O)NC(C)(C)C)c1` [Ex. 67A, trans-isopropyl N-[3-(tert-butylsulfamoyl)-4-[2-[4-(isopropoxycarbonylamino)cyclohexyl]thiazol-5-yl]phenyl]carbamate]: the “% QH (percentage of hepatic blood flow)” value in data set [3] was less than 20.3%. Further, the EC50 in data set [4] is greater than 10000 nM. The results for the “F (%) @ 5 mg/kg” value in data set [5] (Rat Female) and in data set [5] (Rat Male) were 86.5% and 46.9%, respectively.
As to `CC(C)OC(=O)NC1CCC(c2ncc(-c3ccc(NC(=O)OC[C@@H]4CCCN4C)cc3S(=O)(=O)NC(C)(C)C)s2)CC1` (stereo partly drawn) [Ex. 35, isopropyl ((1S,4r)-4-(5-(2-(N-(tert-butyl)sulfamoyl)-4-(((((S)-1-methylpyrrolidin-2-yl)methoxy)carbonyl)amino)phenyl)thiazol-2-yl)cyclohexyl)carbamate], the EC50 in data set [1] is 100 to 1000 nM. Further, in data set [2], the Papp A→B at 90 min is 0.4 ×10⁻⁶ cm/s, the Papp B→A at 90 min was found to be 41 ×10⁻⁶ cm/s and the efflux ratio at 90 min was found to be 99.1.
